# In PMC4340712, “Delineating the Biosynthesis of Gentamicin X2, the Common Precursor of the Gentamicin C Antibiotic Complex” (Chemistry & Biology, 2015):
# Experiments:
# GenS2 = biological target: T1, GenS2 (Micromonospora echinospora, UniProt Q70KD4); test: LC-ESI-HRMS of […]″-deamination; assay type: biochemical; conditions: 2-oxoglutarate 1 mM as amino acceptor, Tris-HCl pH 7.5, 30°C; reverse reaction; GenS2 alone
# T1 construct: gene gtmD; full length, N-terminal His6 tag (pET28a), initiator Met lost, tag kept; E. coli BL21(DE3)
# T1 sequence (Q70KD4 2-418): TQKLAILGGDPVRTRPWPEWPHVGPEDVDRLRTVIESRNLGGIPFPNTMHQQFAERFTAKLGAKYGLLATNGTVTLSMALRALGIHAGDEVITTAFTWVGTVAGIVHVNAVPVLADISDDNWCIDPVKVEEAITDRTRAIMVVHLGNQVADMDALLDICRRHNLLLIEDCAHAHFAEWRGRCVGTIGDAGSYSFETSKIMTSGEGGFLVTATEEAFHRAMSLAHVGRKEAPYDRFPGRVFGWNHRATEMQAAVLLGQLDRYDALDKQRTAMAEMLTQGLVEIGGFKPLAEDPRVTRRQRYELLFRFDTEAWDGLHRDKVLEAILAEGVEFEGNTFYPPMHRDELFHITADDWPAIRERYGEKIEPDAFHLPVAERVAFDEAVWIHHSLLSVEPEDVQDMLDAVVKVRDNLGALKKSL
# GenD2 = biological target: T2, GenD2 (Micromonospora echinospora, UniProt Q70KD1); test: coupled reverse reaction from kanamycin B, LC-ESI-HRMS; assay type: biochemical; conditions: NADH or NADPH 2.5 mM; ketone generated in situ by GenS2 with 2-oxoglutarate; Tris-HCl pH 7.5, 30°C
# T2 construct: gene gtmC; full length, N-terminal His6 tag (pET28a), initiator Met lost, tag kept; E. coli BL21(DE3); 38,533 Da (calc. 38,539)
# T2 sequence (Q70KD1 entry or part of it): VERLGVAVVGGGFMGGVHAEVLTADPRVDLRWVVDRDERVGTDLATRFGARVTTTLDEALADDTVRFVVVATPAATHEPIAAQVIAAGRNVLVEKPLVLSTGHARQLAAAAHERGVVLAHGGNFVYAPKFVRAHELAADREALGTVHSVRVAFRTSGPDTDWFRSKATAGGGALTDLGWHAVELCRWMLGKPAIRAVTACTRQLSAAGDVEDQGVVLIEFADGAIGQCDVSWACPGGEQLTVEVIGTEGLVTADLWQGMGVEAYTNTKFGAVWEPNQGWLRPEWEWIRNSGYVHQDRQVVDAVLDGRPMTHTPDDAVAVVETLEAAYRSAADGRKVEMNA
# [1] = substrate: NC[C@H]1O[C@H](O[C@H]2[C@H](O)[C@@H](O[C@H]3O[C@H](CO)[C@@H](O)[C@H](N)[C@H]3O)[C@H](N)C[C@@H]2N)[C@H](N)[C@@H](O)[C@@H]1O; test: SAM-dependent N-methylation kinetics (details in supplement); assay type: biochemical, Micromonospora echinospora; conditions: co-substrate SAM; 3″-N-methylation
molecule,measurement,setting,value
"NC[C@H]1O[C@H](O[C@H]2[C@H](O)[C@@H](O[C@H]3O[C@H](CO)[C@@H](O)[C@H](N)[C@H]3O)[C@H](N)C[C@@H]2N)[C@H](N)[C@@H](O)[C@@H]1O [compound 11, kanamycin B]",LC-ESI-HRMS of 3′′-deamination,GenS2,LC-ESI-HRMS analysis showed that GenS2 catalyzed low-level deamination of both compounds
"NC[C@H]1O[C@H](O[C@H]2[C@H](O)[C@@H](O[C@H]3O[C@H](CO)[C@@H](O)[C@H](N)[C@H]3O)[C@H](N)C[C@@H]2N)[C@H](N)C[C@@H]1O [compound 12, tobramycin]",LC-ESI-HRMS of 3′′-deamination,GenS2,LC-ESI-HRMS analysis showed that GenS2 catalyzed low-level deamination of both compounds
"NC[C@H]1O[C@H](O[C@H]2[C@H](O)[C@@H](O[C@H]3O[C@H](CO)[C@@H](O)C(=O)[C@H]3O)[C@H](N)C[C@@H]2N)[C@H](N)[C@@H](O)[C@@H]1O [compound 13, 3″-deamino-3″-oxo-kanamycin B]","coupled reverse reaction from kanamycin B, LC-ESI-HRMS",GenD2,in the presence of GenS2 and GenD2 (and either NADH or NADPH) essentially quantitative yields
"GenN (Micromonospora echinospora) (protein, full length, N-terminal His6 tag (pET28a), initiator Met lost, tag kept; E. coli BL21(DE3)) IVGGSTIQPERVDAAALRQLGDAMRKVVGSADPTPLADLLSGTPVDPDELTREVGADGRQALLDSGMAVDDGTTFSSPLRGHQLHGVVVLSDPDVEEEVQHRWYVDPLWEADLLIRLMLRRGGARALDMGCGSGVLSLVLADRYESVLGVDVNPRAVALSRLNAALNGLTNVTFREGDMFEPAEGRFSRIVFNSPTNEEGNEFVDLLEAGEPILETFFRNVPRKLESGGIVEVNLAMNDYPGDPFRERLADWLGLTENGLRVQIFTSQRRATESGGEWKRGWLVVAPGPVGLTEVEWPYHDRYEEDPDALLDGTDRLLRG",Km,[1],34 ± 3.8 µM
same,kcat,[1],1.93 ± 0.1 s⁻¹
